Experimental data from patent US20260274814A1, “THIENYL COMPOUNDS FOR THE TREATMENT OF A CENTRAL NERVOUS SYSTEM DISEASE OR DISORDER” (Coreterra Therapeutics, Inc., priority 2023, published 2026).
Counter-ions that a name gives are not always drawn. Like-named read-outs stand apart in the source and are kept apart here.

Tested on: mice
Assay: Neuropharmacological Assay (SmartCube): automated behavioral signature of compound-treated mice compared with a database of reference drug classes
Type: in vivo
Settings: for MED (minimal effective dose) / minimal effective dose / MED: i.p., that dose is shown; for AD / AG / AN / AP / AX / CE / HL / MS / PS / SH / UK: 3.0 mg/kg i.p., 15 min before test; for minimal effective dose: Mus musculus, ip
Summary of the method: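 i.p. dosing 15 min pre-test (NMP/PEG/propylene glycol vehicle); 3 doses, 3.0 mg/kg reported. Output = class-match probability per behavioural effect. Potency runs 0.3, 1, 3, 10 mpk (range adjusted as needed); MED = dose with ≥45% total activity.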

[1] = dose having 45% or more total activity in SmartCube, if only one dose was tested, hydrochloride
[2] = probability that activity matches this class of agents
[3] = dose having 45% or more total activity in SmartCube, if only one dose was tested, read-out: MED (minimal effective dose)
[4] = dose having 45% or more total activity in SmartCube, if only one dose was tested
[5] = probability that activity matches this class of agents, hydrochloride, 3 mg/kg
[6] = minimal effective dose: dose having 45% or more total activity in SmartCube, if only one dose tested, read-out: MED
[7] = SmartCube class probability, hydrochloride, 3 mg/kg
[8] = minimal effective dose: dose having 45% or more total activity in SmartCube, if only one dose tested

SMILES	AD [2]	AG [2]	AN [2]	AX [2]	CE [2]	HL [2]	MS [2]	PS [2]	SH [2]	UK [2]	AP [5]	UK [5]	AG (SmartCube class probability)	CE (SmartCube class probability)	MS (SmartCube class probability)	AD [7]	UK [7]	other results
Cl.FC1(F)CC(NC2CCc3cscc3C2)C1 (single isomer, unassigned) [Compound 127, N-(3,3-difluorocyclobutyl)-4,5,6,7-tetrahydro-2-benzothiophen-5-amine hydrochloride]	ND (^ <4%)	ND (^ <4%)	ND (^ <4%)	ND (^ <4%)	ND (^ <4%)	ND (^ <4%)	ND (^ <4%)	ND (^ <4%)	ND (^ <4%)	ND (^ <4%)	–	–	–	–	–	–	–	MED (minimal effective dose) [1]: 30 mpk; AP [2]: ND (^ <4%)
c1scc2c1CCC(NC1COC1)C2 (single isomer, unassigned) [Compound 128, N-(4,5,6,7-tetrahydro-2-benzothiophen-5-yl)oxetan-3-amine]	ND (^ <4%)	ND (^ <4%)	ND (^ <4%)	ND (^ <4%)	ND (^ <4%)	ND (^ <4%)	ND (^ <4%)	ND (^ <4%)	ND (^ <4%)	+ (≥4%)	–	–	–	–	–	–	–	minimal effective dose [3]: 10 mg/kg; AP [2]: ND (^ <4%)
c1scc2c1CCC(NC1COC1)C2 (single isomer, unassigned) [Compound 129, N-(4,5,6,7-tetrahydro-2-benzothiophen-5-yl)oxetan-3-amine]	ND (^ <4%)	–	–	–	–	–	–	–	–	+ (≥4%)	–	–	–	–	–	–	–	MED (minimal effective dose) [4]: 10 mpk
CNC1CCc2scc(Cl)c2C1 (single isomer, unassigned) [Compound 131, 3-chloro-N-methyl-4,5,6,7-tetrahydrobenzothiophen-5-amine hydrochloride]	–	ND (^ <4%)	ND (^ <4%)	ND (^ <4%)	ND (^ <4%)	ND (^ <4%)	–	–	ND (^ <4%)	–	++ (≥24%)	ND (^ <4%)	–	–	–	–	–	minimal effective dose [3]: 3 mg/kg; AD [5]: + (≥4%); MS [5]: + (≥4%); PS [5]: ND (^ <4%)
CNC1CCc2scc(Cl)c2C1 (single isomer, unassigned) [Compound 132, 3-chloro-N-methyl-4,5,6,7-tetrahydrobenzothiophen-5-amine hydrochloride]	–	ND (^ <4%)	ND (^ <4%)	ND (^ <4%)	ND (^ <4%)	ND (^ <4%)	–	–	ND (^ <4%)	–	+ (≥4%)	++ (≥24%)	–	–	–	–	–	MED (minimal effective dose) [4]: 3 mpk; AD [5]: ND (^ <4%); MS [5]: ND (^ <4%); PS [5]: + (≥4%)
CNC1CCc2csc(C#N)c2C1 (single isomer, unassigned) [Compound 133, 6-(methylamino)-4,5,6,7-tetrahydro-2-benzothiophene-1-carbonitrile hydrochloride]	–	ND (^ <4%)	ND (^ <4%)	ND (^ <4%)	ND (^ <4%)	ND (^ <4%)	ND (^ <4%)	ND (^ <4%)	ND (^ <4%)	–	+ (≥4%)	ND (^ <4%)	–	–	–	–	–	MED (minimal effective dose) [1]: <1 mpk; AD [5]: +++ (≥49%)
CNC1CCc2csc(C#N)c2C1 (single isomer, unassigned) [Compound 134, 6-(methylamino)-4,5,6,7-tetrahydro-2-benzothiophene-1-carbonitrile hydrochloride]	–	ND (^ <4%)	ND (^ <4%)	ND (^ <4%)	ND (^ <4%)	ND (^ <4%)	ND (^ <4%)	ND (^ <4%)	ND (^ <4%)	–	ND (^ <4%)	+++ (≥49%)	–	–	–	–	–	MED (minimal effective dose) [1]: 3 mpk; AD [5]: ND (^ <4%)
NC1COc2ccsc2C1 (single isomer, unassigned) [Compound 135, 6,7-dihydro-5H-thieno[3,2-b]pyran-6-amine hydrochloride]	ND (^ <4%)	ND (^ <4%)	ND (^ <4%)	ND (^ <4%)	ND (^ <4%)	ND (^ <4%)	ND (^ <4%)	ND (^ <4%)	–	–	+ (≥4%)	ND (^ <4%)	–	–	–	–	–	minimal effective dose [3]: 3 mg/kg; SH [5]: ++ (≥24%)
NC1COc2ccsc2C1 (single isomer, unassigned) [Compound 136, 6,7-dihydro-5H-thieno[3,2-b]pyran-6-amine hydrochloride]	ND (^ <4%)	ND (^ <4%)	ND (^ <4%)	ND (^ <4%)	ND (^ <4%)	ND (^ <4%)	ND (^ <4%)	ND (^ <4%)	–	–	ND (^ <4%)	+ (≥4%)	–	–	–	–	–	MED (minimal effective dose) [1]: >3 mpk; SH [5]: ND (^ <4%)
CNC1CCc2scc(F)c2C1 (single isomer, unassigned) [Compound 137, 3-fluoro-N-methyl-4,5,6,7-tetrahydrobenzothiophen-5-amine hydrochloride]	ND (^ <4%)	ND (^ <4%)	ND (^ <4%)	–	ND (^ <4%)	ND (^ <4%)	ND (^ <4%)	ND (^ <4%)	ND (^ <4%)	ND (^ <4%)	++++ (≥74%)	–	–	–	–	–	–	minimal effective dose [3]: 1 mg/kg; AX [5]: ND (^ <4%)
CNC1CCc2scc(F)c2C1 (single isomer, unassigned) [Compound 138, 3-fluoro-N-methyl-4,5,6,7-tetrahydrobenzothiophen-5-amine hydrochloride]	ND (^ <4%)	ND (^ <4%)	ND (^ <4%)	–	ND (^ <4%)	ND (^ <4%)	ND (^ <4%)	ND (^ <4%)	ND (^ <4%)	ND (^ <4%)	+++ (≥49%)	–	–	–	–	–	–	MED (minimal effective dose) [4]: 1 mpk; AX [5]: ++ (≥24%)
Cc1csc2c1CC(N)CC2 (single isomer, unassigned) [Compound 143, 3-methyl-4,5,6,7-tetrahydrobenzothiophen-5-amine hydrochloride]	–	–	–	–	–	–	–	–	–	–	–	–	ND (^ <4%)	ND (^ <4%)	ND (^ <4%)	+ (≥4%)	ND (^ <4%)	minimal effective dose [6]: 1 mg/kg; AN (SmartCube class probability): ND (^ <4%); AP (SmartCube class probability): ND (^ <4%); AX (SmartCube class probability): ND (^ <4%); HL [7]: + (≥4%); PS [7]: ++ (≥24%); SH [7]: + (≥4%)
Cc1csc2c1CC(N)CC2 (single isomer, unassigned) [Compound 144, 3-methyl-4,5,6,7-tetrahydrobenzothiophen-5-amine hydrochloride]	–	–	–	–	–	–	–	–	–	–	–	–	ND (^ <4%)	ND (^ <4%)	ND (^ <4%)	ND (^ <4%)	++++ (≥74%)	AN (SmartCube class probability): ND (^ <4%); AP (SmartCube class probability): ND (^ <4%); AX (SmartCube class probability): ND (^ <4%); HL [7]: ND (^ <4%); PS [7]: ND (^ <4%); SH [7]: ND (^ <4%); MED [8]: 1 mpk
CNC1CCc2cc(Cl)sc2C1 (single isomer, unassigned) [Compound 145, 2-chloro-N-methyl-4,5,6,7-tetrahydrobenzothiophen-6-amine hydrochloride]	–	–	–	–	–	–	–	–	–	–	–	–	ND (^ <4%)	ND (^ <4%)	ND (^ <4%)	++++ (≥74%)	ND (^ <4%)	minimal effective dose [6]: 3 mg/kg; AN (SmartCube class probability): ND (^ <4%); AP (SmartCube class probability): ND (^ <4%); AX (SmartCube class probability): ND (^ <4%); HL (SmartCube class probability): ND (^ <4%); PS (SmartCube class probability): ND (^ <4%); SH (SmartCube class probability): ND (^ <4%)
CNC1CCc2cc(Cl)sc2C1 (single isomer, unassigned) [Compound 146, 2-chloro-N-methyl-4,5,6,7-tetrahydrobenzothiophen-6-amine hydrochloride]	–	–	–	–	–	–	–	–	–	–	–	–	ND (^ <4%)	ND (^ <4%)	ND (^ <4%)	ND (^ <4%)	+++ (≥49%)	AN (SmartCube class probability): ND (^ <4%); AP (SmartCube class probability): ND (^ <4%); AX (SmartCube class probability): ND (^ <4%); HL (SmartCube class probability): ND (^ <4%); PS (SmartCube class probability): ND (^ <4%); SH (SmartCube class probability): ND (^ <4%); MED [8]: 3 mpk
CNC1CCc2c(sc(Cl)c2C)C1 (single isomer, unassigned) [Compound 147, 2-chloro-N, 3-dimethyl-4,5,6,7-tetrahydrobenzothiophen-6-amine hydrochloride]	–	–	–	–	–	–	–	–	–	–	–	–	ND (^ <4%)	ND (^ <4%)	ND (^ <4%)	ND (^ <4%)	+++ (≥49%)	minimal effective dose [6]: 3 mg/kg; PS (SmartCube class probability): ND (^ <4%); SH (SmartCube class probability): ND (^ <4%); AN [7]: + (≥4%); AP [7]: ND (^ <4%); AX [7]: ND (^ <4%); HL [7]: + (≥4%)
